{"source": "patent US5352665A", "about": "“Method of treating disease caused by the infection of virus” (Mitsui Toatsu Chemicals, Incorporated, priority 1987, dated 1994)", "key": {"[1]": {"test": "Toxicity test, repeated subcutaneous administration to mice", "assay_type": "in vivo, mouse", "from_the_text": "(§1) Thus, the medicament of the present invention is a safe medicament of extremely low toxicity and can be administered for a long period of time."}, "[2]": {"test": "Toxicity test, repeated subcutaneous administration to rats", "assay_type": "in vivo, rat", "conditions": "30 mg/kg subcutaneously for consecutive 21 days", "from_the_text": "as §1"}, "REO virus type II": {"tested_on": "REO virus type II", "test": "Jerne plaque assay (anti-SRBC hemolysis plaques) in new-born NC mice infected with REO virus", "assay_type": "in vivo, mouse", "conditions": "for PFC/10^6 spleen cells (number of hemolysis plaques): measured 4 days later; for therapeutic effect on immune inhibition (in words): administered together with SRBC to infected NC mice, LPS 5 μg/mouse, MDP 20 μg/mouse", "experimental": "Two weeks after the infection of 10^5 PFU REO virus, sheep red blood cells (referred to hereinafter simply as SRBC) was intraperitoneally administered and 4 days after the administration, the number of hemolysis plaques was measured by way of Jerne plaque assay as a production amount of antibody-forming cells against SRBC. The number of hemolysis plaques was 15±2 per 10^6 spleen cells in a group not infected with REO virus, while that was 2.8±1.6 in an infected group, thus showing a remarkable immunity inhibitory state. In compliance with this, atrophy of thymus and decrease in the number of thymic cortex lymphocytes were observed.\nOn the other hand, the effective ingredient of this invention dissolved in physiological saline was administered in an amount of 10 μg/mouse simultaneously with SRBC to mice, and 4 days after the administration, the number of hemolysis plaques was measured whereupon the number was 22±5. […] In a group to which muramyl dipeptide was administered in an amount of 20 μg/mouse together with Freund incomplete adjuvant, the number of hemolysis plaques was 11±2.\nNext, recovery of the immune function by immunity-enhancing substance was examined, using new-born mice infected with REO virus type II. Two weeks after the infection of the mice with the virus, sheep red blood cells were administered to the mice, and 4 days after the administration, Jerne plaque assay was carried out to measure the number of hemolysis plaques. The number was 15±2 in a group of the mice not infected and was 2.8±1.6 in a group of the infected mice. […] This recovery of the function of immune inhibition is tabulated as follows:\nMice infected with virus was immunized at the same time with SRBC and an immunostimulant, and 4 days after the immunization, the number of hemolysis plaques was measured by Jerne plaque assay.\nAfter mice being infected with REO virus, 10 μg 1 μg or 0.1 μg of FTS was administered to the mice. After 18 days, inhibition of immunity and recovery of its function were observed by way of Jerne plaque assay.\nVirus: REO virus type II, innoculation 1×10^5 PFU/mouse"}}, "note": "Square brackets hold non-standard residues; d marks the D form. Peptide text beside a SMILES is read from it. pGlu = O=C1CC[C@@H](C(=O)O)N1"}
{"molecule": "C[C@H](NC(=O)[C@@H]1CCC(=O)N1)C(=O)N[C@@H](CCCCN)C(=O)N[C@@H](CO)C(=O)N[C@@H](CCC(N)=O)C(=O)NCC(=O)NCC(=O)N[C@@H](CO)C(=O)N[C@@H](CC(N)=O)C(=O)O", "note": "[FTS, pGlu-Ala-Lys-Ser-Gln-Gly-Gly-Ser-Asn] ([pGlu]AKSQGGSN-OH)", "values": [{"measurement": "toxicity", "setting": "[1]; 50 mg/kg and 100 mg/kg subcutaneously for consecutive 14 days, ddy male mice of 5 weeks old", "result": "No toxicity was observed"}, {"measurement": "abnormal symptom by external check", "setting": "[1]; 100 mg/kg subcutaneously every day for consecutive 14 days, mice", "result": "no abnormal symptom was found"}, {"measurement": "abnormal symptom in external behavior observation, biochemical diagnosis of sera and pathological anatomy", "setting": "[2]; rats", "result": "no abnormal symptom was found"}, {"measurement": "toxicity", "setting": "[2]; wister rats of 5 weeks old", "result": "No toxicity was observed"}]}
{"molecule": "lipopolysaccharide [LPS]", "values": [{"measurement": "PFC/10^6 spleen cells (number of hemolysis plaques)", "setting": "REO virus type II; LPS 5 μg/mouse with SRBC 2 weeks after 10^5 PFU REO virus", "result": "0.3 ± 0.4", "unit": "PFC/10^6 spleen cells"}, {"measurement": "PFC/10^6 spleen cells (number of hemolysis plaques)", "setting": "REO virus type II; LPS 5 μg/mouse with SRBC 2 weeks after 10^5 PFU REO virus, listed as lipopolysaccharide (LPS)", "result": "0.3±0.4", "unit": "PFC/10^6 spleen cells"}, {"measurement": "therapeutic effect on immune inhibition (in words)", "setting": "REO virus type II", "result": "no therapeutic effect"}]}
{"molecule": "CC(=O)N[C@H]1C(O)O[C@H](CO)[C@@H](O)[C@@H]1O[C@H](C)C(=O)N[C@@H](C)C(=O)N[C@H](CCC(=O)O)C(N)=O", "note": "(mixture of isomers) [MDP, muramyl dipeptide]", "values": [{"measurement": "PFC/10^6 spleen cells (number of hemolysis plaques)", "setting": "REO virus type II; MDP 20 μg/mouse with Freund incomplete adjuvant and SRBC 2 weeks after 10^5 PFU REO virus", "result": "11 ± 2", "unit": "PFC/10^6 spleen cells"}, {"measurement": "PFC/10^6 spleen cells (number of hemolysis plaques)", "setting": "REO virus type II; MDP 20 μg/mouse with Freund incomplete adjuvant and SRBC 2 weeks after 10^5 PFU REO virus, listed as muramyl dipeptide", "result": "11±2", "unit": "PFC/10^6 spleen cells"}, {"measurement": "therapeutic effect on immune inhibition (in words)", "setting": "REO virus type II", "result": "showing a therapeutic effect"}]}
